Read-outs that look alike come from different tables or passages of the source.
Assays:
Type in all cases: in vivo
[1] = system: Plasmopara vilicola (the causal agent of grape downy mildew); experiment: Test A: grape downy mildew, test suspension sprayed on grape seedlings after inoculation, visual disease rating; conditions: for pest or weed control at 40 ppm: Plasmopara, 144 h, read-out: Percent Disease Control, Test A
Outline: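 Curative spray: spores applied first, plants kept 24 h in saturated air at 20 °C and dried before treatment, then 5 days at 20 °C plus 24 h saturated. Suspension: acetone (3% of volume) in 1:1 acetone/water, 250 ppm Trem 014, sprayed to run-off (200 ppm ≈ 500 g/ha); visual 0–100 control rating.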

[2] = system: Phytophthora infestans (the causal agent of tomato late blight); experiment: whole plant or invertebrate; conditions: for pest or weed control at 40 ppm: Phytophthora infestans, 144 h, read-out: Percent Disease Control, Test B
[3] = system: Phytophthora infestans (the causal agent of tomato late blight); experiment: whole plant or invertebrate; conditions: for pest or weed control at 40 ppm: Phytophthora infestans, 96 h, read-out: Percent Disease Control, Test C
[4] = compounds without asterisk (application rate not given), 100 = 100% disease control, 0 = no control relative to the controls

Compound	Percent Disease Control, Test A ([1]; * tested at 40 ppm) [%]	Percent Disease Control, Test B ([2]; * tested at 40 ppm) [%]	Percent Disease Control, Test C ([3]; * tested at 40 ppm) [%]	further results
CCCC1(c2ccccc2)CC(c2csc(C3CCN(C(=O)Cn4nc(C(F)(F)F)cc4C)CC3)n2)=NO1 (stereo not drawn) [Compound 101]	100	100	99	–
Cc1cc(C(F)(F)F)nn1CC(=O)N1CCC(c2nc(C3=NOC4(CCSc5ccccc54)C3)cs2)CC1 (stereo not drawn) [Compound 102, 1-[4-[4-(2,3-dihydrospiro[4H-1-benzothiopyran-4,5′(4′H)-isoxazol]-3′-yl)-2-thiazolyl]-1-piperidinyl]-2-[5-methyl-3-(trifluoromethyl)-1H-pyrazol-1-yl]ethanone]	–	–	–	pest or weed control at 40 ppm ([1]; * tested at 40 ppm): 100%; pest or weed control at 40 ppm [2]: 100%; pest or weed control at 40 ppm [3]: 99%
Cc1cc(C(F)(F)F)nn1CC(=O)N1CCC(c2nc(C3=NOC(c4ccccc4)(C4CC4)C3)cs2)CC1 (stereo not drawn) [Compound 103]	100	100	99	–
Cc1cc(C(F)(F)F)nn1CC(=O)N1CCC(c2nc(C3=NOC4(CCC(c5ccccc5)CC4)C3)cs2)CC1 (stereo not drawn) [Compound 104]	–	–	–	Percent Disease Control, Test A [1, 4]: 100%; Percent Disease Control, Test B [2, 4]: 100%; Percent Disease Control, Test C [3, 4]: 99%
CCC1(c2ccccc2)CC(c2csc(C3CCN(C(=O)Cn4nc(C(F)(F)F)cc4C)CC3)n2)=NO1 (stereo not drawn) [Compound 105]	100	100	99	–
Cc1cc(C(F)(F)F)nn1CC(=O)N1CCC(c2nc(C3=NOC(c4ccc(-c5ccccc5)cc4)C3)cs2)CC1 (stereo not drawn) [Compound 106]	80	85	24	–
O=C(Cn1nc(C(F)(F)F)cc1Cl)N1CCC(c2nc(C3=NOC(c4ccccc4)C3)cs2)CC1 (stereo not drawn) [Compound 107, 2-[5-chloro-3-(trifluoromethyl)-1H-pyrazol-1-yl]-1-[4-[4-(4,5-dihydro-5-phenyl-3-isoxazolyl)-2-thiazolyl]-1-piperidinyl]ethanone]	–	–	–	pest or weed control at 40 ppm ([1]; * tested at 40 ppm): 100%; pest or weed control at 40 ppm [2]: 100%; pest or weed control at 40 ppm [3]: 99%
Cc1cc(C(F)(F)F)nn1CC(=O)N1CCC(c2nc(C3=NC(c4ccccc4)C(c4ccccc4)N3)cs2)CC1 (stereo not drawn) [Compound 108]	–	–	–	Percent Disease Control, Test A [1, 4]: 0%; Percent Disease Control, Test B [2, 4]: 58%; Percent Disease Control, Test C [3, 4]: 0%
Cc1cc(C(F)(F)F)nn1CC(=O)N1CCC(c2nc(C3=NOC4(CCCc5sccc54)C3)cs2)CC1 (stereo not drawn) [Compound 109]	100	100	98	–
Cc1cc(C(F)(F)F)nn1CC(=O)N1CCC(c2nc(C3=NOC(c4ccc(O)cc4)C3)cs2)CC1 (stereo not drawn) [Compound 110]	97	100	99	–
Cc1cc(C(F)(F)F)nn1CC(=O)N1CCC(c2nc(C3=NOC(c4cnccn4)C3)cs2)CC1 (stereo not drawn) [Compound 111]	97	100	97	–
Cc1cc(C(F)(F)F)nn1CC(=O)N1CCC(c2nc(C3=NOC(CN4Cc5cccc(Cl)c5S4(=O)=O)C3)cs2)CC1 (stereo not drawn) [Compound 112]	76	100	68	–
CC(=O)Oc1ccc(C2CC(c3csc(C4CCN(C(=O)Cn5nc(C(F)(F)F)cc5C)CC4)n3)=NO2)cc1 (stereo not drawn) [Compound 113]	99	100	99	–
Cc1cc(C(F)(F)F)nn1CC(=O)N1CCC(c2nc(C3=NOC(c4ccccc4C(F)(F)F)C3)cs2)CC1 (stereo not drawn) [Compound 114]	100	100	99	–
Cc1cc(C(F)(F)F)nn1CC(=O)N1CCC(c2nc(C3=NOC(c4cccc(C(F)(F)F)c4)C3)cs2)CC1 (stereo not drawn) [Compound 115]	100	100	99	–

From patent US9920030B2 (priority 2006, dated 2018)
